Reference: patent US8518912B2, “Phosphonic acid derivates and their use as P2Y12 receptor antagonists” (Actelion Pharmaceuticals Ltd., priority 2008, dated 2013)

Tested on: ADP induced platelet aggregation
Assay: Light transmission platelet aggregation assay
Assay type: cell-based
Conditions: human platelet-rich plasma; ADP at 1-5 μM final concentration; 2 minutes preincubation at 37° C.
Procedure: After obtaining informed consent, blood was obtained by vein puncture from healthy volunteers using a thrombin inhibitor as the anticoagulant. Platelet-rich plasma (PRP) was removed after centrifugation at 20° C. for 10 minutes at 200 g and allowed to equilibrate at 37° C. Part of the blood was centrifuged for 10 minutes at 5000 g to yield platelet poor plasma (PPP).
Light transmission platelet aggregation was carried out according to the method of Born & Cross (G. V. R. Born and M. J. Cross, J. Physiol. (1963), 168, 178-195) using a Chronolog lumiaggregometer with stirring (1000 rpm) at 37° C. PRP was placed into the cuvette and allowed to equilibrate at 37° C. for two minutes. In a first phase, the ADP concentration to give optimal extent of aggregation was determined for the PRP of each donor. In a second phase, PRP was incubated with inhibitors for 2 minutes at 37° C. prior to the addition of the agonist ADP at 1-5 μM final concentration. The change in light transmission, indicative of ongoing aggregation, was monitored during 5 minutes. The extent of platelet aggregation was calculated relative to light absorbance of PRP (not aggregated) and PPP (full aggregation).

First: CCOC(=O)N1CCN(C(=O)[C@H](CCC(=O)O)NC(=O)c2cc(N3CC[C@H](OC)C3)nc(-c3ccccc3)n2)CC1 [reference compound]
Second: CCOC(=O)N1CCN(C(=O)[C@H](CC(=O)O)NC(=O)c2cc(N3CC[C@H](OC)C3)nc(-c3ccccc3)n2)CC1 [reference compound]
The IC50 of the first is 4.3-fold lower: 0.032 µM for the first, 0.138 µM for the second. The first is the more potent here.

Compared with `CCCCOC(=O)N1CCN(C(=O)[C@H](CCP(=O)(O)O)NC(=O)c2cc(N3CC[C@H](OC)C3)nc(-c3ccccc3)n2)CC1` [Example 5, 4-((S)-2-{[6-((S)-3-methoxy-pyrrolidin-1-yl)-2-phenyl-pyrimidine-4-carbonyl]-amino}-4-phosphono-butyryl)-piperazine-1-carboxylic acid butyl ester], `CCCCOC(=O)N1CCN(C(=O)[C@H](CP(=O)(O)O)NC(=O)c2cc(N3CC[C@H](OC)C3)nc(-c3ccccc3)n2)CC1` [Example 2, 4-((R)-2-{[6-((S)-3-methoxy-pyrrolidin-1-yl)-2-phenyl-pyrimidine-4-carbonyl]-amino}-3-phosphono-propionyl)-piperazine-1-carboxylic acid butyl ester] is 8-fold higher in IC50: 0.001 µM for the first, 0.008 µM for the second.

Going from `CCOC(=O)N1CCN(C(=O)[C@H](CCP(=O)(O)O)NC(=O)c2cc(N3CC[C@H](OC)C3)nc(-c3ccccc3)n2)CC1` [Example 4, 4-((S)-2-{[6-((S)-3-methoxy-pyrrolidin-1-yl)-2-phenyl-pyrimidine-4-carbonyl]-amino}-4-phosphono-butyryl)-piperazine-1-carboxylic acid ethyl ester] to `CCOC(=O)N1CCN(C(=O)[C@H](CP(=O)(O)O)NC(=O)c2cc(N3CC[C@H](OC)C3)nc(-c3ccccc3)n2)CC1` [Example 1, 4-((R)-2-{[6-((S)-3-methoxy-pyrrolidin-1-yl)-2-phenyl-pyrimidine-4-carbonyl]-amino}-3-phosphono-propionyl)-piperazine-1-carboxylic acid ethyl ester], the IC50 falls from 0.021 µM to 0.01 µM (2.1-fold). The second is the more potent here.

Going from `CCCCOC(=O)N1CCN(C(=O)[C@H](CCC(=O)O)NC(=O)c2cc(N3CC[C@H](OC)C3)nc(-c3ccccc3)n2)CC1` [reference compound] to `CCCCOC(=O)N1CCN(C(=O)[C@H](CC(=O)O)NC(=O)c2cc(N3CC[C@H](OC)C3)nc(-c3ccccc3)n2)CC1` [reference compound], the IC50 rises from 0.021 µM to 0.091 µM (4.3-fold). The first is the more potent here.

First: CCOC(=O)N1CCN(C(=O)[C@H](Cc2ccc(P(=O)(O)O)cc2)NC(=O)c2cc(N3CC[C@H](OC)C3)nc(-c3ccccc3)n2)CC1 [Example 59, 4-[(S)-2-{[6-((S)-3-Methoxy-pyrrolidin-1-yl)-2-phenyl-pyrimidine-4-carbonyl]-amino}-3-(4-phosphono-phenyl)-propionyl]-piperazine-1-carboxylic acid ethyl ester]
Second: CCOC(=O)N1CCN(C(=O)[C@H](Cc2ccc(C(=O)O)cc2)NC(=O)c2cc(N3CC[C@H](OC)C3)nc(-c3ccccc3)n2)CC1 [reference compound]
The IC50 of the first is 56-fold lower: 0.004 µM for the first, 0.226 µM for the second.
